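Interpolation was linear, between the two tested concentrations surrounding the appropriate level; five concentrations were tested over 48 hours in 96-well plates. At the GI50, growth is halved. Definition used: TGI = concentration required for complete inhibition of growth.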

The term TGI denotes the concentration giving total growth inhibition. Low values mean more potent growth arrest, high ones less potent growth arrest. The term GI50 denotes the concentration that inhibits growth by half.

Common to all, as to test: DTP human tumour cell line panel, 48 h
Experiment [1] relates to A549 NSCLC.
In experiment [2] the test system is SW-620 colon.
Experiment [3] has as its system CCRF-CEM leukemia.
For experiment [4], the system named is KM12 colon.
Experiment [5] has as its system COLO 205 colon.
Experiment [6] concerns MDA-MB-435.
The subject of experiment [7] is PC-3 prostate.
Experiment [8] has as its system MDA-MB-231 breast.
The subject of experiment [9] is HOP-62 NSCLC.

Take `Cc1ccc(S(=O)(=O)N[C@H](C(=O)O)c2ccccc2)cc1`: the TGI in experiment [1], in [2], in experiment [3], in [4] and in experiment [5] was greater than 100 µM throughout.

On to `N=C(N)c1ccc(OCc2cccc(COc3ccc(C(=N)N)cc3)c2)cc1`, for which the GI50 is 19.3 µM in experiment [1]; 4.01 µM in [6]; 12.4 µM in experiment [7]; 5.64 µM in experiment [2]; 15.1 µM in experiment [5]; 4.09 µM in [8]. For the same molecule, the concentration for total growth inhibition (TGI) in [1] was greater than 100 µM; in experiment [6], 11.8 µM; in [7], 25.8 µM; in experiment [2], 21.3 µM; in [5], 40.3 µM; in experiment [8], 15.9 µM.

For the molecule `COc1ccc(C(=O)c2cc(OC)c(OC)c(OC)c2)cc1`, the TGI in [1] is greater than 100 µM; in experiment [6] it was 0.0424 µM; in experiment [2], greater than 100 µM; in [3], greater than 100 µM; in experiment [4], greater than 33.1 µM; in experiment [5], 3.69 µM. The total growth inhibition concentration (TGI) in experiment [8] and in experiment [9] was greater than 100 µM throughout.

As for `NC1=NC(=O)/C(=C/c2ccccc2[N+](=O)[O-])C(N)=N1`, the TGI in experiment [1], in experiment [2], in experiment [3], in experiment [4], in experiment [5] and in [9] was greater than 100 µM in each case.

For the molecule `CCOc1ccccc1NC(=O)CC1C(=O)Nc2ccccc2S1=O` (stereo not given), the concentration for total growth inhibition (TGI) in experiment [1], in experiment [2] and in [3] was greater than 100 µM in each case.

`C[N+](C)(C)CC1CCCC/C1=N\OC(=O)c1ccccc1` (stereo not given): the TGI in experiment [1], in [2], in experiment [3], in experiment [4], in [5] and in experiment [9] was greater than 100 µM each time.

For `CCOC(=O)c1c2c(c(O)c3ccccc3c(O)n(Cc3ccc(OC)cc3)c1C)C(=O)C=CC2=O`, the GI50 in experiment [1], in experiment [6], in experiment [7], in experiment [2], in experiment [4] and in experiment [5] was greater than 100 µM throughout. The GI50 in [8] and in experiment [9] was greater than 100 µM in each case. Moreover, the concentration for total growth inhibition (TGI) in experiment [1], in experiment [6], in experiment [7], in [2], in experiment [4] and in experiment [5] was greater than 100 µM each time. Further, the TGI in experiment [8] and in [9] was greater than 100 µM in each case.

With `COc1cc(/C=C/c2ccncc2)cc(OC)c1OC`, the TGI in experiment [1], in [2], in experiment [3], in [4], in experiment [5] and in experiment [9] was greater than 100 µM each time.

Regarding `COc1ccccc1NC(=O)c1sc2nc3c(cc2c1N)C(=O)CCC3`, the GI50 in [1] was 2.11 µM; in experiment [6], 0.295 µM; in experiment [3] it was greater than 100 µM; in experiment [5] it was 2.03 µM; in experiment [8], 2.91 µM; in [9] it was 2.37 µM. Moreover, the TGI in experiment [1] is greater than 100 µM; in experiment [6], 1.58 µM; in experiment [3] it was greater than 100 µM; in [5] it was greater than 100 µM; in [8] it was greater than 100 µM; in experiment [9] it was 7.17 µM.

Regarding `CN1C(=O)CC(c2cccc(C3CC(=O)N(C)C3=O)n2)C1=O` (stereo not given), the TGI in experiment [1], in experiment [2], in experiment [3], in [4], in experiment [5] and in [9] was greater than 100 µM in each case.

As to `COc1cccc2c1C(=O)C=CC2=O`, the TGI came out at 40.4 µM in experiment [1]; 26.2 µM in experiment [6]; 23.6 µM in experiment [2]; 1.65 µM in experiment [3]; 25 µM in experiment [4]; 20.5 µM in experiment [5]. The concentration for total growth inhibition (TGI) in experiment [8] was 4.76 µM; in [9] it was 34.4 µM.

`Cc1ccccc1NC(=O)C(=O)C(C#N)c1ccc(Cl)cc1` (stereo not given): the TGI was greater than 100 µM in experiment [1]; 31.2 µM in experiment [2]; greater than 100 µM in [3]; greater than 100 µM in [4]; greater than 100 µM in [5]; greater than 100 µM in experiment [9].

As to `CCN(CC)CCOCC[C@H]1CC[C@H]2[C@@H]3[C@H](C)Cc4cc(OS(N)(=O)=O)ccc4[C@H]3CC[C@]12C`, the GI50 in [1] was 1.8 µM; in experiment [7], 1.57 µM; in experiment [2], 1.38 µM; in experiment [3], 1.14 µM; in experiment [4] it was 1.25 µM; in experiment [5], 0.62 µM. Further, the GI50 in [8] is 1.5 µM; in experiment [9], 1.43 µM. Moreover, the total growth inhibition concentration (TGI) turned out to be 5.58 µM in [1]; 4.48 µM in experiment [7]; 2.75 µM in [2]; 4.34 µM in experiment [3]; 2.55 µM in [4]; 1.78 µM in experiment [5]. In addition, the TGI is 3.03 µM in [8] and 2.88 µM in experiment [9].

With `COc1cc2c3c(n(CCCN)c(=O)c2cc1OC)-c1ccccc1C3=O`, the GI50 is 0.755 µM in experiment [6]; 0.723 µM in [7]; 1.89 µM in experiment [2]; 0.517 µM in experiment [4]; 0.472 µM in experiment [5]; 1.23 µM in [8]. In addition, in experiment [9], the concentration for 50% growth inhibition (GI50) is 0.351 µM. Further, the concentration for total growth inhibition (TGI) in [6] is 18.9 µM; in experiment [7], 2.69 µM; in experiment [2] it was greater than 100 µM; in [4], 2.5 µM; in [5], 5.72 µM; in [8], 3.02 µM. For the same molecule, in experiment [9], the TGI is 2.96 µM.

On to `CC1CC(C2=CC=CCS2)=Nc2ccccc2S1` (stereo not given), for which the concentration for total growth inhibition (TGI) in experiment [1], in experiment [2], in experiment [3], in [4], in [5] and in [9] was greater than 100 µM throughout.

(Values after PubChem BioAssay (NCI).)
